Source: US20240100023A1, “Compositions and Methods For Treating Spinal Cord Injuries” (priority 2020, published 2024)

Assays:
LTP in rat hippocampus = assay: Induction of LTP in rat hippocampus in vivo; set-up: species or system Rat (Long Evans); details: for Minimum Effective Dose, effect on induction of LTP in rat hippocampus: Rat (Long Evans), IP
Rat (SD) [1] = assay: Radial arm maze - spatial memory; format: in vivo; details: for Minimum Effective Dose, radial arm maze - spatial memory: Rat (SD), IP
Experimental: Yet another animal model for evaluating ampakine drug activity employed herein is the well-known and widely accepted Radial Arm Maze model. CX717 was tested for its ability to improve the performance of aged rats in an eight-arm radial maze using a cross-over design study. This behavioral test uses a standard eight-arm radial maze wherein five arms were open and baited with food pellets for the first morning session. Each animal was allowed to consume the food rewards present in the open arms and was then returned to its home cage. Six hours later animals were returned to the maze, wherein all eight-arms were open, but only the three arms previously closed contained food rewards. Scoring was based on the number of correct choices before an incorrect choice (re-entering an arm that was visited during the morning acquisition session) was made and on the total number of incorrect choices made before all three of the still baited arms were visited. CX717 was tested at six doses (0.03, 0.1, 0.3, 1, 3 and 10 mg/kg in hydroxypropyl β-cyclodextran, i.p.), administered 30 min prior to the start of the morning acquisition session and no drug was given prior to the second trial six hours later.
For CX1739 male Sprague-Dawley rats were trained to perform the win shift assay on the radial arm maze for approximately 10 weeks prior to the study. On each day of training and testing, each rat completed one trial, split into a sample phase and a test phase. During the sample phase, the rat was placed on a 12-arm radial arm maze surrounded by visual cues. Food wells at the end of each arm were baited with sucrose pellets but access to three arms, selected randomly, was blocked with a clear plastic divider at the arm entrance. The rat was allowed 5 minutes to search the maze and collect the available food pellets before being removed from the maze. Fifteen minutes later the rat was returned to the maze for the test phase of the trial. During the test phase, the rat was allowed access to all 12 arms of the maze but only the arms that had been blocked previously were baited with sucrose pellets. […]

Monkey (Rhesus) = assay: Delayed match-to-sample test; format: in vivo, Rhesus macaque; details: for Minimum Effective Dose, delayed match-to-sample test: Monkey (Rhesus), PO
Experimental: Further elucidating the potent behavioral and cognitive effects of exemplary ampakines useful within the invention, additional studies using the well-known Monkey Delayed Match to Sample assay were conducted. CX1739 was evaluated using aged Rhesus macaque monkeys (18 to 33 years old), undertaking the delayed match-to-sample (DMTS) task. The stimuli included red, blue, or yellow rectangles. A trial was initiated by presentation of a sample rectangle composed of one of the three colors. The sample rectangle remained in view until the monkey touched within its borders to initiate a pre-programmed delay (retention) interval. Following the delay interval, two choice rectangles were presented, with one of the two choice colors being the color matching the stimulus and the other (incorrect) color as one of the two remaining colors. A correct (matching) choice was reinforced. Non-matching choices were neither reinforced nor punished. The duration for each delay interval was adjusted for each subject until three levels of group performance accuracy approximated zero delay (85-100% of trials answered correctly), short delay interval (75-84% correct), medium delay interval (65-74% correct), and long delay interval (55-64% correct). The inter-trial interval was 5 seconds and each session consisted of 96 trials.

Rat (SD) [2] = assay: Amphetamine-stimulated locomotion and rearing in rats; format: in vivo; details: for Minimum Effective Dose, amphetamine-stimulated locomotion and rearing: Rat (SD), PO
Experimental: Effects of exemplary low impact ampakines were also evaluated in mice for the ability to inhibit amphetamine-stimulated locomotor activity. Mice were placed in the locomotor chamber for 20 min to habituate, removed, injected with either vehicle or SCI recovery ampakine (CX717), and 5 min later injected with 2 mg/kg i.p. Amphetamine Mice were returned to the locomotor chamber 10 min later, and their activity measured for a further 15 min. In related studies, adult male CD1 mice or male Sprague-Dawley rats were acclimated in a test chamber for 20 minutes removed and dosed i.p. (mice) or orally (rats) with CX1739, vehicle, or a reference compound. Five (mice) or 10 (rats) were then injected with amphetamine (2 mg/kg, i.p.) or saline vehicle and were returned to the activity test chamber.

[3] = Phase 1 studies in healthy volunteers (safety, pharmacokinetics); format: in vivo, human
[4] = tested on: unanesthetized, freely moving rats; assay: Diaphragm EMG and plethysmography in awake rats after C2Hx; format: in vivo, Rat
Experimental: Low dose ampakine treatment was evaluated in awake, freely moving subjects to determine whether this treatment would safely and effectively increase diaphragm activity impaired due to acute- or sub-acute cervical SCI. In a placebo-controlled experiment with freely-moving non-anesthetized rats, ventilation and metabolic rate (VCO2) were measured using whole body plethysmography and diaphragm EMG using in-dwelling muscle electrodes. Diaphragm electromyography (EMG) was recorded using chronic in-dwelling electrodes in unanesthetized, freely moving rats. A spinal hemilesion was induced at C2 (C2Hx), and rats were studied at 4- and 14-days post injury during quiet room air breathing and acute respiratory challenge accomplished by inspiring 10% O2, 7% CO2 gas mixture. At 4 and 14 days following C2 spinal hemisection injury (C2Hx), rats were given a single intravenous bolus of CX717 (5 mg/kg, n=8), CX1739 (5 mg/kg, n=8) or vehicle (2-hydroxypropyl-beta-cyclodextrin; HPCD; n=8) (FIG. 22). Hemisectional spinal surgery results in reduced diaphragm activity as measured by EMG and plethysmography (FIG. 23).

[5] = 14 days post injury, baseline breathing, 5 mg/kg i.v.

CN(C(=O)c1ccc2nonc2c1)C1CCOCC1 [CX1739, N-Methyl-N-tetrahydro-2H-pyran-4-yl-[2,1,3]-benzoxadiazole-5-carboxamide]
Effect on LTP after tetanic stimulation (LTP in rat hippocampus; 3 mg/kg, 15 minutes prior to tetanic stimulation): statistically significant increase in LTP
Minimum Effective Dose, effect on induction of LTP in rat hippocampus (LTP in rat hippocampus): 3 mg/kg
Minimum Effective Dose, radial arm maze - spatial memory (Rat (SD) [1]): 0.3 mg/kg
Dose producing the maximal effect / optimal dose in the maze assays (Rat (SD) [1]; ip): 0.3 mg/kg
Minimum Effective Dose, delayed match-to-sample test (Monkey (Rhesus)): 0.3 mg/kg
Task accuracy with the Best Dose of each subject (Monkey (Rhesus); sessions initiated 45 min after administration): statistically significant increase
Minimum Effective Dose, amphetamine-stimulated locomotion and rearing (Rat (SD) [2]): 1 mg/kg
Amphetamine-stimulated rearing behavior in rats (Rat (SD) [2]; rats, all doses tested): modest reduction
Half-life compared with CX516 ([3]; human, in vivo): significantly longer half-lives than CX516
Increase in tidal volume ([4]; 4-day time point, 5 mg/kg intravenous bolus): 20%
Tidal volume during hypoxia-hypercapnia challenge ([4]; 10% O2, 7% CO2, follows the 4-day results): larger increase in tidal volume
Increase in tidal volume [4, 5]: no change in tidal volume
Increase of peak inspiratory ipsilateral diaphragm EMG activity [4, 5]: ~10%

O=C(c1ccc2nonc2c1)N1CCOCC1 [CX717, 1-(benzofurazan-5-ylcarbonyl)morpholine]
Minimum Effective Dose, effect on induction of LTP in rat hippocampus (LTP in rat hippocampus): 2 mg/kg
Minimum Effective Dose, radial arm maze - spatial memory (Rat (SD) [1]): 0.3 mg/kg
Minimum Effective Dose, delayed match-to-sample test (Monkey (Rhesus)): 0.8 mg/kg
Minimum Effective Dose, amphetamine-stimulated locomotion and rearing (Rat (SD) [2]): 1 mg/kg
Half-life compared with CX516 ([3]; species not stated): significantly longer half-lives than CX516
Increase in tidal volume [4, 5]: ~20%
Increase of peak inspiratory ipsilateral diaphragm EMG activity [4, 5]: ~30%
